These results are taken from patent US10138227B2, “Heteroaryl substituted pyridines and methods of use” (AbbVie S.à.r.l., priority 2016, dated 2018).

Holding throughout (format): cell-based
In experiment [1] the target is T1, CFTR ΔF508 mutant (Homo sapiens, UniProt P13569, DEL508-508).
T1 construct: expressed in transfected cells; host or cells: CFBE41o- cells transduced with adenoviral vectors
Description: YFP-halide influx assay for the CFTR-ΔF508 mutation. The following applies: CFBE41o- cells expressing CFTR ΔF508 and YFP reporter, forskolin 10.67 μM; for EC50: (1-F/F0) vs concentration. The source says: The YFP halide influx assay measured the functionality of the cystic fibrosis Transmembrane Conductance regulator (CFTR) channels in the cystic fibrosis bronchial epithelium cell line CFBE41o-. The assay was used to evaluate the capacity of compounds to increase the open probability of existing CFTR channels in the membrane. It makes use of the observation that the yellow fluorescent protein (YFP) variant YFP H148Q, I152L, F47L has its fluorescence substantially quenched by halide ions like Cl^− and I^− (Galietta, L. J. V., Haggie, P. M., Verkman, A. S., 2001. Green fluorescent protein-based halide indicators with improved chloride and iodide affinities. FEBS Lett. 499, 220-224. doi:10.1016/S0014-5793(01)02561-3; Nagai, T., Ibata, K., Park, E. S., Kubota, M., Mikoshiba, K., Miyawaki, A., 2002. A variant of yellow fluorescent protein with fast and efficient maturation for cell-biological applications. Nat. Biotechnol. 20, 87-90. doi:10.1038/nbt0102-87).
For this purpose, CFBE410-cells were seeded in 384 well plates (3000 CFBE cells/well). One day after seeding, the CFBE cells were transduced with adenoviral vectors that direct the expression of the CFTR ΔF508 mutant and of the YFP reporter. Cells were incubated at 27° C., 5% CO2 for 24 hours so as to allow for the proper folding and migration to the membrane of the CFTR channel or treated with a CFTR modulator during 24 hours at 37° C.
The I-induced quenching of fluorescence was recorded on an immediately after injection of iodide for 2 minutes on an FDSS/μCell (Hamamatsu). The capacity of a compound to increase the channel opening was directly correlated with the decrease in fluorescence, and was expressed as (1-(fluorescence after 36 seconds (F)/fluorescence before injection (F0))) and an EC50 was derived from a (1-F/F0) vs compound concentration plot.

The target in experiment [2] is T2, CFTR G551D mutant (Homo sapiens, UniProt P13569, G551D).
T2 construct: expressed in transfected cells; host or cells: HEK293 cells, reverse-transfected with plasmid vectors
T2 sequence (P13569 whole entry G551D): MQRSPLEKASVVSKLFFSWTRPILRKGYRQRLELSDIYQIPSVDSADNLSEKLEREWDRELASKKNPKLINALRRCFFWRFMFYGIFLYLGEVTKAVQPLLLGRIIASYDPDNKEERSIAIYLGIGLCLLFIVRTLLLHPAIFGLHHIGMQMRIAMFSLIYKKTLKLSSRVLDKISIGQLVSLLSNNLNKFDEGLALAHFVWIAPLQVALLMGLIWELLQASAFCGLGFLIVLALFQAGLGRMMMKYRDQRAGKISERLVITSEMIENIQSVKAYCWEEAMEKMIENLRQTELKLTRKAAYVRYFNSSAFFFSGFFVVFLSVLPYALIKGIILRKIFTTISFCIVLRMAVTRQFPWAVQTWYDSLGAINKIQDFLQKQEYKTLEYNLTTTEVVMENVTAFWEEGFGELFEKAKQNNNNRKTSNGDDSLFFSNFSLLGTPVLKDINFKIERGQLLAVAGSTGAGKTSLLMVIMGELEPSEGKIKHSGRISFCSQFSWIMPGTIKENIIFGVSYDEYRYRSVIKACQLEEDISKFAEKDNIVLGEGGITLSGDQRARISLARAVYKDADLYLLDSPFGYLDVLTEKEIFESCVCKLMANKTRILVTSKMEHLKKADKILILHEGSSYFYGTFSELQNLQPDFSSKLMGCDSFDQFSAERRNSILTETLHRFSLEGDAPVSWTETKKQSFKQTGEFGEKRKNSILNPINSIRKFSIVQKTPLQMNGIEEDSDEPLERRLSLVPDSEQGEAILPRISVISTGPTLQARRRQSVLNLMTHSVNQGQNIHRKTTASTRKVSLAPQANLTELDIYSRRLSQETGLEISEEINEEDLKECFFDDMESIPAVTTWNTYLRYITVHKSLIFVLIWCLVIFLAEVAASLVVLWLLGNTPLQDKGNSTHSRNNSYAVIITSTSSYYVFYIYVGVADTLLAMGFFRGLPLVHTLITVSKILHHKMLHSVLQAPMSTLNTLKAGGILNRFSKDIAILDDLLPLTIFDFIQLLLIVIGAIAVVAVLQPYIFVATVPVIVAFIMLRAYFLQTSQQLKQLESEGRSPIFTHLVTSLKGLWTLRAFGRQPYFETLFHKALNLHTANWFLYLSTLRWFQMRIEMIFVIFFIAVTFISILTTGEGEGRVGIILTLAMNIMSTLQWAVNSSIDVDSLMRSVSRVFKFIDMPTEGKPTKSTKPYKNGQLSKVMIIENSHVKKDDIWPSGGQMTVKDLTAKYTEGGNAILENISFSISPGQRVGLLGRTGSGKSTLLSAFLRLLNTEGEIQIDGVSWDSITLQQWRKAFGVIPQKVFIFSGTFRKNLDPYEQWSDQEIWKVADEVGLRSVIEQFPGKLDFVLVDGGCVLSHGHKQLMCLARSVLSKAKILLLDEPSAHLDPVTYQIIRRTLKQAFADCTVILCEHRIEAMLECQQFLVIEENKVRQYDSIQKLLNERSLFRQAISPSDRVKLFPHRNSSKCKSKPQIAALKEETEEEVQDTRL
Description: YFP-halide influx assay for the CFTR-G551D mutation. The following applies: HEK293 cells expressing CFTR G551D and YFP reporter; forskolin 10.67 μM. The source says:
(§1) The YFP halide influx assay measured the functionality of the cystic fibrosis Transmembrane Conductance regulator (CFTR) channels. The assay was used to evaluate the capacity of compounds to increase the channel opening of existing mutant CFTR channels in the membrane. It makes use of the observation that the yellow fluorescent protein (YFP) variant YFP H148Q, I152L, F47L has its fluorescence substantially quenched by halide ions like Cl^− and I^− (Galietta, L. J. V., Haggie, P. M., Verkman, A. S., 2001. Green fluorescent protein-based halide indicators with improved chloride and iodide affinities. FEBS Lett. 499, 220-224. doi:10.1016/S0014-5793(01)02561-3).
(§2) For this purpose, HEK293-cells were seeded in 96 well plates. During seeding, the cells were reverse-transfected with plasmid vectors that direct the expression of the CFTR G551D mutant and of the YFP reporter. Cells were incubated at 37° C., 5% CO2 for 24 hours so as to allow for sufficient expression of the CFTR protein.
(§3) The I^−-induced quenching of fluorescence was recorded immediately after injection of I^− for 7 seconds. The capacity of a compound to increase the channel opening was directly correlated with the decrease in fluorescence, and was expressed as (1-(fluorescence after 7 seconds (F)/fluorescence before injection (F0))) and an EC50 was derived from a (1−F/F0) vs compound concentration plot.

The target in experiment [3] is T3, CFTR-R117H (Homo sapiens, UniProt P13569, R117H).
T3 construct: expressed in transfected cells; HEK293 with plasmid vectors inferred from the G551D protocol, to which the assay is called similar
T3 sequence (P13569 whole entry R117H): as the sequence (P13569 whole entry G551D) above, with R117H, D551G counted along it
Put plainly: YFP-halide influx assay for the CFTR-R117H.
Description: as §1, §2, §3
(§4) Similar YHA assays were developed for other channel gating defective or channel conductance defective CFTR mutants to determine effect of compound on channel activity. Examples of mutants are G178R, G1349D, S549N, R117H, R334W. This assay is also used for additional class I CFTR mutants, including G542X, W1282X; class II mutants including N1303K, and for class III mutants including S1251N; or wild-type CFTR.

Experiment [4] addresses T4, CFTR-G1349D (Homo sapiens, UniProt P13569, G1349D).
T4 construct: expressed in transfected cells; HEK293 with plasmid vectors inferred from the G551D protocol, to which the assay is called similar
Description: YFP-halide influx assay for the CFTR-G1349D.
Description: as §1, §2, §3, §4

The target of experiment [5] is T5, CFTR-S549N (Homo sapiens, UniProt P13569, S549N).
T5 construct: expressed in transfected cells; HEK293 with plasmid vectors inferred from the G551D protocol, to which the assay is called similar
T5 sequence (P13569 whole entry S549N): as the sequence (P13569 whole entry G551D) above, with S549N, D551G counted along it
Put plainly: YFP-halide influx assay for the CFTR-S549N.
Description: as §1, §2, §3, §4

For experiment [6], the target named is T6, CFTR-G178R (Homo sapiens, UniProt P13569, G178R).
T6 construct: expressed in transfected cells; HEK293 with plasmid vectors inferred from the G551D protocol, to which the assay is called similar
T6 sequence (P13569 whole entry G178R): as the sequence (P13569 whole entry G551D) above, with G178R, D551G counted along it
Put plainly: YFP-halide influx assay for the CFTR-G178R.
Description: as §1, §2, §3, §4

T1 sequence (P13569 with tags, fused parts or gaps DEL508-508): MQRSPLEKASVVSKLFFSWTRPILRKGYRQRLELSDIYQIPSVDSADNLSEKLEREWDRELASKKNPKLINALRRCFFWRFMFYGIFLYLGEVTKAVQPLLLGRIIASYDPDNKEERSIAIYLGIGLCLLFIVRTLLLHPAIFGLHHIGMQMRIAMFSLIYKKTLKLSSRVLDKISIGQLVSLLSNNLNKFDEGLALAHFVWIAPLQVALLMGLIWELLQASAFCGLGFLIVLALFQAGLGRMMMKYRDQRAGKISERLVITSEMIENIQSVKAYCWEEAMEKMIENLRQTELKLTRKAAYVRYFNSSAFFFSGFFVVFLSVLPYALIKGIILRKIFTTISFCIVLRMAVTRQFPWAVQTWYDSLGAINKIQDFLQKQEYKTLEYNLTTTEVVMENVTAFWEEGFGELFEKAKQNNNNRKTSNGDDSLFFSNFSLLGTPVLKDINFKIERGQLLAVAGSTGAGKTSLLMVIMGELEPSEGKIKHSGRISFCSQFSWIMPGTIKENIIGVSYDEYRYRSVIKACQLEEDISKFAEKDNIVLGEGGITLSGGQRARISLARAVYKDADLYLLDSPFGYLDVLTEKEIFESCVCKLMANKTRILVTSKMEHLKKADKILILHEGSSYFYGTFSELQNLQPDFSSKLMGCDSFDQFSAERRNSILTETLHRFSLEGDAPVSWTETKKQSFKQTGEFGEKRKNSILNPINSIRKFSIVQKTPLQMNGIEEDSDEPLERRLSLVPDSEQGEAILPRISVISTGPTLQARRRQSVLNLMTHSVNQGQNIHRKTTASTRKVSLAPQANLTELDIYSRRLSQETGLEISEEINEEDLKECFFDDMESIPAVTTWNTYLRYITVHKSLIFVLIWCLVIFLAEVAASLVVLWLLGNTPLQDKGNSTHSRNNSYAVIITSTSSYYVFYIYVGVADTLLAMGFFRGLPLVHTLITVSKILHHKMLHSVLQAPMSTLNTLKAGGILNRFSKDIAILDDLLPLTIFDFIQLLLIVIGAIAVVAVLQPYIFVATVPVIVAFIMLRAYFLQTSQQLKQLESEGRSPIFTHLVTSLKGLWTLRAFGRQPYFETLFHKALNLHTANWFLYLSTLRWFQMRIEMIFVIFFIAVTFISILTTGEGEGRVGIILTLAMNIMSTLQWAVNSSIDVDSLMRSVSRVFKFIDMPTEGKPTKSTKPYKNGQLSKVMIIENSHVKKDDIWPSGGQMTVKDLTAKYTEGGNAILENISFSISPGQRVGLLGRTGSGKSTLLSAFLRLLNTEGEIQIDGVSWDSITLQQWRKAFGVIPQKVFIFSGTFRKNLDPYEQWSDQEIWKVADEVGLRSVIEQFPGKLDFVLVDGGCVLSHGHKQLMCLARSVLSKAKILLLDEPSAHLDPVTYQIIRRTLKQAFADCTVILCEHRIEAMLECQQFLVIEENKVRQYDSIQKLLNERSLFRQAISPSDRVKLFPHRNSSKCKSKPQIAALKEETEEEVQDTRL
T4 sequence (P13569 whole entry G1349D): as the sequence (P13569 whole entry G551D) above, with D551G, G1349D counted along it

As usually defined, the EC50 is the concentration at which the effect is half-maximal. Higher therefore signals weaker potency. In the case of `Nc1cc(S(=O)(=O)c2ccc(OC(F)(F)F)cc2)cnc1-c1ncc(CO)s1` [Compound 5, (2-{3-amino-5-[4-(trifluoromethoxy)benzene-1-sulfonyl]pyridin-2-yl}-1,3-thiazol-5-yl)methanol], in experiment [1], the “% Activation” value turned out to be 58.29% and the half-maximal effective concentration (EC50) was over 667 nM. Moreover, in experiment [2], the “% Activation” value is on record as 0.3% and the EC50 is over 10000 nM.

In the case of `CC(O)(c1nnc(-c2ncc(S(=O)(=O)c3ccc(OC(F)(F)F)cc3)cc2N)o1)C(F)(F)F` (stereo not shown) [Compound 3, 2-(5-{3-amino-5-[4-(trifluoromethoxy)benzene-1-sulfonyl]pyridin-2-yl}-1,3,4-oxadiazol-2-yl)-1,1,1-trifluoropropan-2-ol], the “% Activation” value in experiment [1] is recorded as 120.51%; in experiment [3], 89.0%; in experiment [4], 58.6%; in experiment [5], 56.3%; in experiment [6], 57.4%; in experiment [2], 49.0%. For the same compound, the EC50 is 2.36 nM in experiment [1]; 35.5 nM in experiment [3]; 44.9 nM in experiment [4]; 55.9 nM in experiment [5]; 1440 nM in experiment [6]; 181 nM in experiment [2].

With `Nc1cc(S(=O)(=O)c2ccc(OC(F)(F)F)cc2)cnc1-c1nc(COc2ccc(F)cc2)no1` [Compound 49, 2-{3-[(4-fluorophenoxy)methyl]-1,2,4-oxadiazol-5-yl}-5-[4-(trifluoromethoxy)benzene-1-sulfonyl]pyridin-3-amine], in experiment [1], the “% Activation” value worked out at 29.2% and the EC50 is over 3320 nM.

In the case of `Nc1cc(S(=O)(=O)c2ccc(OC(F)(F)F)cc2)cnc1-c1nnc(COC(F)F)s1` [Compound 30, 2-{5-[(difluoromethoxy)methyl]-1,3,4-thiadiazol-2-yl}-5-[4-(trifluoromethoxy)benzene-1-sulfonyl]pyridin-3-amine], in experiment [1], the “% Activation” value was 94.98% and it took 3.61 nM to reach a half-maximal effect (EC50).

Take `Nc1cc(S(=O)(=O)c2ccc(OC(F)(F)F)cc2)cnc1-c1nc(CC2CC2)no1` [Compound 50, 2-[3-(cyclopropylmethyl)-1,2,4-oxadiazol-5-yl]-5-[4-(trifluoromethoxy)benzene-1-sulfonyl]pyridin-3-amine]: in experiment [1], the “% Activation” value came out at 45.59% and the EC50 was over 1660 nM.

As for `Nc1cc(S(=O)(=O)c2ccc(C(F)(F)F)cc2)cnc1-c1nnc(CO)s1` [Compound 62, (5-{3-amino-5-[4-(trifluoromethyl)benzene-1-sulfonyl]pyridin-2-yl}-1,3,4-thiadiazol-2-yl)methanol], in experiment [1], the “% Activation” value worked out at 113% and the EC50 was under 0.44 nM.

As to `Nc1cc(S(=O)(=O)c2ccc(OC(F)(F)F)cc2)cnc1-c1nnc(COCC2CC2)s1` [Compound 24, 2-{5-[(cyclopropylmethoxy)methyl]-1,3,4-thiadiazol-2-yl}-5-[4-(trifluoromethoxy)benzene-1-sulfonyl]pyridin-3-amine], in experiment [1], the “% Activation” value came out at 100.82% and the EC50 came to 13.7 nM.

As to `Nc1cc(S(=O)(=O)c2ccc(OC(F)(F)F)cc2)cnc1-c1nnc(C[C@@H]2CCCO2)o1` [Compound 40, 2-(5-{[(2S)-oxolan-2-yl]methyl}-1,3,4-oxadiazol-2-yl)-5-[4-(trifluoromethoxy)benzene-1-sulfonyl]pyridin-3-amine], in experiment [1], the “% Activation” value stood at 106.65% and the EC50 came out at 36.8 nM.

As for `CC(C)c1ccccc1S(=O)(=O)c1cnc(-c2nnc(CO)o2)c(N)c1` [Compound 65, (5-{3-amino-5-[2-(propan-2-yl)benzene-1-sulfonyl]pyridin-2-yl}-1,3,4-oxadiazol-2-yl)methanol], in experiment [1], the “% Activation” value is given as 106.55% and the EC50 was under 1.05 nM.

Consider `Nc1cc(S(=O)(=O)c2ccc(OC(F)(F)F)cc2)cnc1-c1nnc(COC(F)(F)F)s1` [Compound 28, 5-[4-(trifluoromethoxy)benzene-1-sulfonyl]-2-{5-[(trifluoromethoxy)methyl]-1,3,4-thiadiazol-2-yl}pyridin-3-amine], for which the “% Activation” value in experiment [1] was 50.3%.

For the compound `Nc1cc(S(=O)(=O)c2ccc(C(F)(F)F)cc2)cnc1-c1nnc(CO)o1` [Compound 7, (5-{3-amino-5-[4-(trifluoromethyl)benzene-1-sulfonyl]pyridin-2-yl}-1,3,4-oxadiazol-2-yl)methanol], in experiment [1], the “% Activation” value came out at 109.69% and the response was half-maximal at 5.8 nM (EC50).

For `Nc1cc(S(=O)(=O)c2cccc(OC(F)(F)F)c2)cnc1-c1nnc(CO)o1` [Compound 58, (5-{3-amino-5-[3-(trifluoromethoxy)benzene-1-sulfonyl]pyridin-2-yl}-1,3,4-oxadiazol-2-yl)methanol], in experiment [1], the “% Activation” value came out at 104.91% and the EC50 worked out at 3.51 nM.

`Nc1cc(S(=O)(=O)c2ccc(OC(F)(F)F)cc2)cnc1-c1nnc(COCC2CC2)o1` [Compound 12, 2-{5-[(cyclopropylmethoxy)methyl]-1,3,4-oxadiazol-2-yl}-5-[4-(trifluoromethoxy)benzene-1-sulfonyl]pyridin-3-amine]: in experiment [1], the “% Activation” value stood at 100.38% and the EC50 was 8.52 nM.

Regarding `Nc1c(-c2nnc(CO)o2)ncc(S(=O)(=O)c2ccc(OC(F)(F)F)cc2)c1Cl` [Compound 57, (5-{3-amino-4-chloro-5-[4-(trifluoromethoxy)benzene-1-sulfonyl]pyridin-2-yl}-1,3,4-oxadiazol-2-yl)methanol], in experiment [1], the “% Activation” value turned out to be 93.64% and the EC50 is 2.41 nM.

In the case of `CO[C@@H](C)c1nnc(-c2ncc(S(=O)(=O)c3ccc(OC(F)(F)F)cc3)cc2N)s1` [Compound 23, 2-{5-[(1S)-1-methoxyethyl]-1,3,4-thiadiazol-2-yl}-5-[4-(trifluoromethoxy)benzene-1-sulfonyl]pyridin-3-amine], in experiment [1], the “% Activation” value is 100.92% and the EC50 was found to be 37.1 nM.

Consider `Nc1cc(S(=O)(=O)c2ccc(OC(F)(F)F)cc2)cnc1-c1nnc(C[C@H]2CCCO2)s1` [Compound 32, 2-(5-{[(2R)-oxolan-2-yl]methyl}-1,3,4-thiadiazol-2-yl)-5-[4-(trifluoromethoxy)benzene-1-sulfonyl]pyridin-3-amine], for which, in experiment [1], the “% Activation” value came out at 105.02% and a half-maximal effect (EC50) was put at 36.6 nM.
